# Data published in patent publication US9642909B2, “Pharmaceutical compositions comprising attenuated Plasmodium sporozoites and glycolipid adjuvants” (Sanaria Inc., priority 2011, dated 2017).
# “And” between values parts separate entries of the source, which are not always exact repeats. Equal entries are not always repeated. Where two headings read alike, the source gives them in different places.
# How the values were obtained:
# [1] = system: IFN-γ-secreting CS-specific CD8+ cells; conditions: irradiated sporozoites SC with α-GalCer by the same route vs without; cited from earlier work
# [2] = pre-loaded autologous PBMCs or direct injection; cited from earlier work
# CD1d = CD1d (Homo sapiens, UniProt P15813); conditions: cited from earlier work
# Sequence of CD1d (P15813 20-335, species assumed): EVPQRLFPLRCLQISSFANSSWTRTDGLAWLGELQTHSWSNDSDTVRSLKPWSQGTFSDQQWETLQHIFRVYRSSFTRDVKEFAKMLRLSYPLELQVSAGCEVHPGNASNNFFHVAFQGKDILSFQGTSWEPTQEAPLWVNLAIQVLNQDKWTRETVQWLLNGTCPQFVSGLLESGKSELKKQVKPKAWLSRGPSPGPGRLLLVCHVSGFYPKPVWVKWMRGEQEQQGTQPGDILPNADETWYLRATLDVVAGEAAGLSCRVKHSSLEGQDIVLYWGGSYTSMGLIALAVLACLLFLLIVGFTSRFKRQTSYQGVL
# Sequence of CD1d (P61769 21-119 partner, species assumed): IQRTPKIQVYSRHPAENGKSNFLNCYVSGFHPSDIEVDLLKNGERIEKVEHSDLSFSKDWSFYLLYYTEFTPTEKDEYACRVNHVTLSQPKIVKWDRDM
# iNKT cells [3] = conditions: mouse; cited from earlier work
# iNKT cells [4] = conditions: human; cited from earlier work
# [5] = system: pathogenic P. yoelii sporozoites; experiment: Protection of BALB/c mice against pathogenic P. yoelii sporozoite challenge after a single IV dose of irr PySPZ with or without 7DW8-5 IP; type: in vivo
# Experimental: To determine if the adjuvant 7DW8-5 could decrease the number of doses of irr PySPZ required to confer protection, a suboptimal dosing regimen was performed. irr PySPZ (17NXL) were dissected from the salivary glands of A. stephensi mosquitoes and injected intravenously (IV) into BALB/c mice as a single dose of either of 5×10^4 or 1×10^4 sporozoites. Two μg of 7DW8-5 was concurrently administered intraperitoneally (IP) in some mice. Fourteen days later, mice were challenged with 100 non-irradiated pathogenic P. yoelii sporozoites. Protection was assessed by Giemsa-stained blood smears and was defined as the complete absence of parasitemia 7 and 14 days post infection.
# A second experiment was performed to confirm the results shown in Example 1. […] Again, adjuvant in the absence of antigen had no effect.
# Using the single dose methodology of Example 1 with radiation attenuated Py sporozoites that have been purified using the purification procedure disclosed in Sim et al. (U.S. Pat. No. 8,043,625, incorporated in its entirety herein by reference) a third experiment was performed. Using 1×10^4 purified sporozoites administered IV in a single dose, 3 out of 10 mice were protected, whereas 7 of 10 mice were protected when the adjuvant was concurrently administered IP.
# To determine the optimal single dose of attenuated sporozoites (in conjunction with 7DW8-5 concurrently administered distally IP) that confers protection by the IV route, mice were injected IV with 0, 2500, 5000, 10,000 and 20,000 sporozoites. Two μg of 7DW8-5 were injected IP.
# [6] = system: pathogenic P. yoelii sporozoites; experiment: Protection of BALB/c mice after intradermal immunization with irr PySPZ mixed with 7DW8-5 at base of tail; type: in vivo
# Experimental: To determine whether protective immunogenicity of attenuated sporozoites is maintained or enhanced in the presence of 7DW8-5, mice were immunized by intradermal (ID) injection alone, with 2 doses at 2-week intervals of 15,000, 10,000, 5,000 and 2,500 sporozoites and unlike Examples 1-5, 1 μg 7DW8-5 was mixed as a composition with sporozoites and the composition of adjuvant and sporozoites was delivered ID at the base of the tail. With 2 doses of 15,000 sporozoites in the presence of adjuvant 100% of the mice were protected, and at lower doses of sporozoites 60-80% of the mice were protected. In the absence of adjuvant, only 40% of mice receiving 2 doses of 15,000 sporozoites were protected.
# Protection conferred by a single dose of a composition of 1 μg 7DW8-5 adjuvant and varying amounts of sporozoites delivered ID was measured. For this 15,000 and 30,000 sporozoites were administered to mice ID as described above. These doses were partially protective at 60% and 40% respectively.
# The next step in development was to assess purified irr PySPZ BALB/c/mice were immunized with irr PySPZ purified as described, in the presence or absence of 7DW8-5 adjuvant.
# [7] = system: pathogenic P. yoelii sporozoites; conditions: versus α-GalCer, cited from earlier work
# [8] = summary of Examples 1-3, one dose irr PySPZ IV, 7DW8-5 IP where given
SMILES,increase in number of IFN-γ-secreting CS-specific CD8+ cells [1],safety and tolerability [2],affinity for CD1d (CD1d),activation of iNKT cells (iNKT cells [3]),activation of iNKT cells (iNKT cells [4]),"# protected/# challenged ([5]; Example 1, 2 μg 7DW8-5 IP alone, no sporozoites)","# protected/# challenged ([5]; Example 2, 2 μg 7DW8-5 IP alone, no sporozoites)","# protected/# challenged ([5]; Example 3, 2 μg 7DW8-5 IP alone, no sporozoites)","First Challenge # protected/# re-challenged ([5]; Example 4 table, first challenge, 2 μg 7DW8-5 IP alone)","# protected/# challenged ([5]; Example 5, 0 sporozoites, 2 μg 7DW8-5 IP)","percent protected [5, 8] [%]","protected/challenged [5, 8]","# protected/# challenged ([6]; Example 6, 0 sporozoites, 1 μg 7DW8-5 per mouse ID)","protection ([6]; Example 8, adjuvant alone)",malaria-specific humoral response ([7]; co-administered IM with adenovirus vaccine),malaria-specific CD8+ T cell response ([7]; co-administered IM with suboptimal dose of adenovirus vaccine),adjuvant effect in enhancing protective efficacy ([7]; single immunizing dose of adenovirus recombinant vaccine),ability to elicit cytokine production from iNKT cells (iNKT cells [3]),ability to elicit cytokine production from iNKT cells (iNKT cells [4])
"CCCCCCCCCCCCCCCCCCCCCCCCCC(=O)N[C@@H](CO[C@H]1O[C@H](CO)[C@H](O)[C@H](O)[C@H]1O)[C@H](O)[C@H](O)CCCCCCCCCCCCCC [α-GalCer, α-galactosylceramide]",seven fold,safe and well tolerated,high affinity,potent activator,potent activator,,,,,,,,,,,,,,
CCCCCCCCCCCCCC[C@@H](O)[C@@H](O)[C@H](COC1OC(CO)C(O)C(O)C1O)NC(=O)CCCCCCCCCCc1ccc(F)cc1 (stereo partly shown) [7DW8-5],,,,,,no protection and 0/5,no effect and 0/5,0/5,0/5,0/5,0,0/15,0/5,No protection,equally if not slightly stronger than α-GalCer,significantly more than α-GalCer,significantly stronger adjuvant effect than α-GalCer,superior ability,superior ability
